{"source": "ChEMBL document CHEMBL6177950", "about": "“Discovery of potent and selective CDK2 inhibitors with high safety and favorable bioavailability for the treatment of cancer” (Eur J Med Chem, 2025)", "key": {"OVCAR-3 [1]": {"tested_on": "OVCAR-3", "test": "Antitumor activity against human OVCAR-3 cells xenografted in nude BALB/c mouse assessed as reduction in tumor cells at 40 to 80 mg/kg, po administered once daily for 21 days by H and E staining analysis", "format": "functional, organism-based", "settings": "dose 40-80 mg/kg, time 21.0 day"}, "OVCAR-3 [2]": {"tested_on": "OVCAR-3", "test": "Induction of apoptosis in human OVCAR-3 cells assessed as viable cells at 1 uM incubated for 24 hrs by Annexin V-FITC/PI staining based flow cytometry analysis (reference value: 95.2%)", "format": "functional", "settings": "read-out: Activity"}, "OVCAR-3 [3]": {"tested_on": "OVCAR-3", "test": "Upregulation of JUNB gene expression in human OVCAR-3 cells by GSEA", "format": "functional, cell-based"}, "OVCAR-3 [4]": {"tested_on": "OVCAR-3", "test": "Induction of apoptosis in human OVCAR-3 cells assessed as reduction in Bcl2 expression incubated for 24 hrs by Western blot analysis", "format": "functional, cell-based"}, "OVCAR-3 [5]": {"tested_on": "OVCAR-3", "test": "Downregulation of proliferation-related signaling pathway gene expression in human OVCAR-3 cells by GSEA", "format": "functional, cell-based"}, "OVCAR-3 [6]": {"tested_on": "OVCAR-3", "test": "Induction of cell cycle arrest in human OVCAR-3 cells assessed as accumulation of cells at G1 phase at 1 uM incubated for 24 hrs by flow cytometry analysis (reference value: 67.73%)", "format": "functional"}, "[7]": {"test": "Acute toxicity in ICR mouse assessed as pathological changes in liver at 1000 to 2500 mg/kg, po administered once for 14 days by H and E staining analysis", "format": "organism-based", "settings": "in vivo, 336 h, dose 1000-2500 mg/kg, time 14 day"}, "OVCAR-3 [8]": {"tested_on": "OVCAR-3", "test": "Induction of apoptosis in human OVCAR-3 cells assessed as early apoptotic cells at 2 uM incubated for 24 hrs by Annexin V-FITC/PI staining based flow cytometry analysis (reference value: 1.25%)", "format": "functional"}, "[9]": {"test": "Acute toxicity in ICR mouse assessed as effect on kidney weight at 1000 to 2500 mg/kg, po administered once for 14 days", "format": "organism-based", "settings": "in vivo, 336 h, dose 1000-2500 mg/kg, time 14 day"}, "OVCAR-3 [10]": {"tested_on": "OVCAR-3", "test": "Induction of apoptosis in human OVCAR-3 cells assessed as necrotic cells at 2 uM incubated for 24 hrs by Annexin V-FITC/PI staining based flow cytometry analysis (reference value: 0.87%)", "format": "functional"}, "[11]": {"molecular_target": "Cyclin-dependent kinase 4/cyclin D1 (Homo sapiens, UniProt P11802)", "sequence (P11802 whole entry)": "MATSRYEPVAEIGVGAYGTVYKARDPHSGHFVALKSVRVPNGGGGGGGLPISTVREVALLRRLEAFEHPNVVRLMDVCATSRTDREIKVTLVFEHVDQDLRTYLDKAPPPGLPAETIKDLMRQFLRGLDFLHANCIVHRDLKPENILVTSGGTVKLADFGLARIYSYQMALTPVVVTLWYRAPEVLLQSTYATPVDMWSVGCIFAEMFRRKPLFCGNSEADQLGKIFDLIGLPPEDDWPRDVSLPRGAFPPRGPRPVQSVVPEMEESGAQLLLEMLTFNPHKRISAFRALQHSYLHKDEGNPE", "sequence (P24385 whole entry, further chain)": "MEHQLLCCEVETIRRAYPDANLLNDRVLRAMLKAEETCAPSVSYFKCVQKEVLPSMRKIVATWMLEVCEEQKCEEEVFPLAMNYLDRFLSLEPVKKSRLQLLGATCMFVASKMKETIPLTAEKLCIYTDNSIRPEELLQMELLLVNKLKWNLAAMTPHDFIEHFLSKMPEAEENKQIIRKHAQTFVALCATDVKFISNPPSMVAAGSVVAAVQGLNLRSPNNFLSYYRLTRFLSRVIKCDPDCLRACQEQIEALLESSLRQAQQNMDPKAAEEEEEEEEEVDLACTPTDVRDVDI", "test": "Inhibition of CDK4/Cyclin D1 (unknown origin) pre-incubated for 10 mins followed by ATP/substrate addition and measured after 60 mins by ADP-Glo assay", "format": "protein-complex assay"}, "[12]": {"test": "C0 in Sprague-Dawley rat at 2 mg/kg, iv by LC-MS/MS analysis", "format": "ADME, organism-based", "settings": "in vivo"}, "[13]": {"test": "Acute toxicity in ICR mouse assessed as pathological changes in lung at 1000 to 2500 mg/kg, po administered once for 14 days by H and E staining analysis", "format": "organism-based", "settings": "in vivo, 336 h, dose 1000-2500 mg/kg, time 14 day"}, "OVCAR-3 [14]": {"tested_on": "OVCAR-3", "test": "Upregulation of JUN gene expression in human OVCAR-3 cells by GSEA", "format": "functional, cell-based"}, "[15]": {"test": "Half life in Sprague-Dawley rat at 2 mg/kg, iv by LC-MS/MS analysis", "format": "ADME, organism-based", "settings": "in vivo"}, "[16]": {"test": "Acute toxicity in ICR mouse assessed as pathological changes in kidney at 1000 to 2500 mg/kg, po administered once for 14 days by H and E staining analysis", "format": "organism-based", "settings": "in vivo, 336 h, dose 1000-2500 mg/kg, time 14 day"}, "OVCAR-3 [17]": {"tested_on": "OVCAR-3", "test": "Induction of cell cycle arrest in human OVCAR-3 cells assessed as inhibition of RB phosphorylation level incubated for 24 hrs by Western blot analysis", "format": "functional, cell-based"}, "[18]": {"test": "Acute toxicity in ICR mouse assessed as animal death at 1000 to 2500 mg/kg, po administered once for 14 days", "format": "organism-based", "settings": "in vivo, 336 h, dose 1000-2500 mg/kg, time 14 day"}, "CDK6/cyclin D3": {"molecular_target": "CDK6/cyclin D3 (Homo sapiens, UniProt Q00534)", "sequence (P30281 whole entry)": "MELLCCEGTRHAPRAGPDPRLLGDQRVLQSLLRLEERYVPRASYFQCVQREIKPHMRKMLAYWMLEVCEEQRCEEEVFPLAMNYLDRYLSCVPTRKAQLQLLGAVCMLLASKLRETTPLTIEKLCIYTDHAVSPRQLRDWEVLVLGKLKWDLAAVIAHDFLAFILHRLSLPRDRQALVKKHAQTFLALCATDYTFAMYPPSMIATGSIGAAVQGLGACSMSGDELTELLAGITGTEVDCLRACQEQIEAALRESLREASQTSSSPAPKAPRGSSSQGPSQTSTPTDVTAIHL", "sequence (Q00534 whole entry)": "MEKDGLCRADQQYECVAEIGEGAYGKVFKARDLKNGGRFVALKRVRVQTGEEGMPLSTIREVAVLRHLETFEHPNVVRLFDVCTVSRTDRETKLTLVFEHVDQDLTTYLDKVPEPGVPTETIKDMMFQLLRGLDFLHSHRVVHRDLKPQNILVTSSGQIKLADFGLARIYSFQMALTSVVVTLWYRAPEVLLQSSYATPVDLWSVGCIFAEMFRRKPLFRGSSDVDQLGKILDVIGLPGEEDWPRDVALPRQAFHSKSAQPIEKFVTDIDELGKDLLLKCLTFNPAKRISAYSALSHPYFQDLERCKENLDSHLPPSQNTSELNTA", "test": "Inhibition of CDK6/Cyclin D3 (unknown origin) pre-incubated for 10 mins followed by ATP/substrate addition and measured after 120 mins by ADP-Glo assay", "format": "protein-complex assay"}, "[19]": {"test": "Half life in Sprague-Dawley rat at 20 mg/kg, po by LC-MS/MS analysis", "format": "ADME, organism-based", "settings": "in vivo"}, "OVCAR-3 [20]": {"tested_on": "OVCAR-3", "test": "Induction of apoptosis in human OVCAR-3 cells assessed as viable cells at 2 uM incubated for 24 hrs by Annexin V-FITC/PI staining based flow cytometry analysis (reference value: 95.2%)", "format": "functional", "settings": "read-out: Activity"}, "OVCAR-3 [21]": {"tested_on": "OVCAR-3", "test": "Induction of apoptosis in human OVCAR-3 cells assessed as upregulation of PARP cleavage incubated for 24 hrs by Western blot analysis", "format": "functional, cell-based"}, "[22]": {"test": "Acute toxicity in ICR mouse assessed as effect on lung weight at 1000 to 2500 mg/kg, po administered once for 14 days", "format": "organism-based", "settings": "in vivo, 336 h, dose 1000-2500 mg/kg, time 14 day"}, "OVCAR-3 [23]": {"tested_on": "OVCAR-3", "test": "Upregulation of inflammation-related pathway gene expression in human OVCAR-3 cells by GSEA", "format": "functional, cell-based"}, "[24]": {"test": "Acute toxicity in ICR mouse assessed as effect on liver weight at 1000 to 2500 mg/kg, po administered once for 14 days", "format": "organism-based", "settings": "in vivo, 336 h, dose 1000-2500 mg/kg, time 14 day"}, "[25]": {"test": "MRT (0 to infinity) in Sprague-Dawley rat at 2 mg/kg, iv by LC-MS/MS analysis", "format": "ADME, organism-based", "settings": "in vivo"}, "[26]": {"test": "Acute toxicity in ICR mouse assessed as increase in body weight at 1000 to 2500 mg/kg, po administered once and measured after 1 week", "format": "organism-based", "settings": "in vivo, 168 h, dose 1000-2500 mg/kg, time 1 weeks"}, "[27]": {"test": "Clearance in Sprague-Dawley rat at 20 mg/kg, po by LC-MS/MS analysis", "format": "ADME, organism-based", "settings": "in vivo"}, "OVCAR-3 [28]": {"tested_on": "OVCAR-3", "test": "Antitumor activity against human OVCAR-3 cells xenografted in nude BALB/c mouse model assessed as tumor growth inhibition administered as po once daily for 21 days", "format": "functional, organism-based", "settings": "dose 40-80 mg/kg, time 21.0 day"}, "[29]": {"test": "Acute toxicity in ICR mouse assessed as reduction in body weight at 1000 to 2500 mg/kg, po administered once and measured immediately", "format": "organism-based", "settings": "in vivo, dose 1000-2500 mg/kg"}, "OVCAR-3 [30]": {"tested_on": "OVCAR-3", "test": "Induction of cell cycle arrest in human OVCAR-3 cells assessed as accumulation of cells at G2 phase at 2 uM incubated for 24 hrs by flow cytometry analysis (reference value: 21.77%)", "format": "functional"}, "OVCAR-3 [31]": {"tested_on": "OVCAR-3", "test": "Inhibition of colony formation in CCNE1-amplified human OVCAR-3 incubated for 2 weeks by crystal violet staining based inverted microscopic analysis", "format": "functional, cell-based", "settings": "dose 1-4 µM"}, "OVCAR-3 [32]": {"tested_on": "OVCAR-3", "test": "Induction of apoptosis in human OVCAR-3 cells assessed as late apoptotic cells at 1 uM incubated for 24 hrs by Annexin V-FITC/PI staining based flow cytometry analysis (reference value: 2.67%)", "format": "functional"}, "OVCAR-3 [33]": {"tested_on": "OVCAR-3", "test": "Induction of apoptosis in human OVCAR-3 cells assessed as late apoptotic cells at 2 uM incubated for 24 hrs by Annexin V-FITC/PI staining based flow cytometry analysis (reference value: 2.67%)", "format": "functional"}, "[34]": {"test": "Acute toxicity in ICR mouse assessed as pathological changes in spleen at 1000 to 2500 mg/kg, po administered once for 14 days by H and E staining analysis", "format": "organism-based", "settings": "in vivo, 336 h, dose 1000-2500 mg/kg, time 14 day"}, "OVCAR-3 [35]": {"tested_on": "OVCAR-3", "test": "Induction of apoptosis in human OVCAR-3 cells assessed as necrotic cells at 1 uM incubated for 24 hrs by Annexin V-FITC/PI staining based flow cytometry analysis (reference value: 0.87%)", "format": "functional"}, "[36]": {"test": "Cmax in Sprague-Dawley rat at 20 mg/kg, po by LC-MS/MS analysis", "format": "ADME, organism-based", "settings": "in vivo"}, "OVCAR-3 [37]": {"tested_on": "OVCAR-3", "test": "Induction of cell cycle arrest in human OVCAR-3 cells assessed as accumulation of cells at G2 phase at 1 uM incubated for 24 hrs by flow cytometry analysis (reference value: 21.77%)", "format": "functional"}}, "note": "Calls of active or inactive are those of the source. No cut-off for these calls is given here.", "data": [{"smiles": "CCC(C)n1cc(-c2nc(NC3CCN(S(=O)(=O)C4CC4)CC3)ncc2F)cc(F)c1=O", "note": "(stereo not drawn)", "values": [{"measurement": "Activity", "setting": "OVCAR-3 [1]", "value": "Active"}, {"measurement": "viability at 1 µM", "setting": "OVCAR-3 [2]", "value": 84.6, "unit": "%"}, {"measurement": "Activity", "setting": "OVCAR-3 [3]", "value": "Active"}, {"measurement": "Activity", "setting": "OVCAR-3 [4]", "value": "Dose-dependent-effect"}, {"measurement": "Activity", "setting": "OVCAR-3 [5]", "value": "Active"}, {"measurement": "Activity", "setting": "OVCAR-3 [6]", "value": 94.69, "unit": "%"}, {"measurement": "Activity", "setting": "[7]", "value": "Non-toxic"}, {"measurement": "Activity", "setting": "OVCAR-3 [8]", "value": 3.81, "unit": "%"}, {"measurement": "Activity", "setting": "[9]", "value": "Non-toxic"}, {"measurement": "Activity", "setting": "OVCAR-3 [10]", "value": 3.74, "unit": "%"}, {"measurement": "IC50", "setting": "[11]", "value": 103, "unit": "nM"}, {"measurement": "C0", "setting": "[12]", "value": 1670, "unit": "ng/mL"}, {"measurement": "Activity", "setting": "[13]", "value": "Non-toxic"}, {"measurement": "Activity", "setting": "OVCAR-3 [14]", "value": "Active"}, {"measurement": "half-life", "setting": "[15]", "value": 55.8, "unit": "min"}, {"measurement": "Activity", "setting": "[16]", "value": "Non-toxic"}, {"measurement": "Activity", "setting": "OVCAR-3 [17]", "value": "Active"}, {"measurement": "Activity", "setting": "[18]", "value": "Non-toxic"}, {"measurement": "IC50", "setting": "CDK6/cyclin D3", "value": 171, "unit": "nM"}, {"measurement": "half-life", "setting": "[19]", "value": 272, "unit": "min"}, {"measurement": "viability at 2 µM", "setting": "OVCAR-3 [20]", "value": 79.3, "unit": "%"}, {"measurement": "Activity", "setting": "OVCAR-3 [21]", "value": "Dose-dependent-effect"}, {"measurement": "Activity", "setting": "[22]", "value": "Non-toxic"}, {"measurement": "Activity", "setting": "OVCAR-3 [23]", "value": "Active"}, {"measurement": "Activity", "setting": "[24]", "value": "Non-toxic"}, {"measurement": "MRT inf", "setting": "[25]", "value": 49.2, "unit": "min"}, {"measurement": "Activity", "setting": "[26]", "value": "Non-toxic"}, {"measurement": "CL/F", "setting": "[27]", "value": 29.2, "unit": "mL/min/kg"}, {"measurement": "Activity", "setting": "OVCAR-3 [28]", "value": "Dose-dependent-effect"}, {"measurement": "Activity", "setting": "[29]", "value": "Toxic"}, {"measurement": "Activity", "setting": "OVCAR-3 [30]", "value": 2.09, "unit": "%"}, {"measurement": "inhibition", "setting": "OVCAR-3 [31]", "value": "Dose-dependent-effect"}, {"measurement": "Activity", "setting": "OVCAR-3 [32]", "value": 7.72, "unit": "%"}, {"measurement": "Activity", "setting": "OVCAR-3 [33]", "value": 13.2, "unit": "%"}, {"measurement": "Activity", "setting": "[34]", "value": "Non-toxic"}, {"measurement": "Activity", "setting": "OVCAR-3 [35]", "value": 5.01, "unit": "%"}, {"measurement": "Cmax", "setting": "[36]", "value": 2130, "unit": "ng/mL"}, {"measurement": "Activity", "setting": "OVCAR-3 [37]", "value": 4.3, "unit": "%"}]}]}
